Reference: patent US9707305B2, “Formulas for diagnosing and treating hormone-dependent cancers and cancers of the organs responsible for steroid hormone synthesis” (Commissariat à l'énergie atomique et aux énergies …, priority 2011, dated 2017)

Assay: Biodistribution of the nano-emulsion of Example 1.1 (radioactivity and fluorescence per organ)
Assay type: in vivo
Method: In the following examples, the radioactivity was counted with the TRiCarb Counter (Ref: Packard, Liquid Scintillation Analyzers; Models 2200CA).
Fluobeam 700 (Fluoptics) is the apparatus with which the whole of the organs from the biodistribution were analyzed in fluorescence as well as the one with which the biodistribution kinetics of the nano-emulsions were established in vivo. This imaging system allows viewing of the fluorescence in spectral bands from 700 to 850 nm for a 650 nm excitation. The apparatus consists of an electric case containing the laser of class 3B, its power supply and an optical head containing the CCD camera.
The nano-emulsions of Example 1 were injected into FVB female and male mice. As a comparison, a mixture of three tracers ([3H]CHE, [14C]CO and DiD) (not formulated as a nano-emulsion) was injected in order to observe the distribution of the tracers in the absence of droplets being used as a distribution carrier.
Tables 6 to 14 provide the biodistribution results of each tracer ([3H]CHE, [14C]CO and DiD) expressed as a percentage of the dose injected per gram of tissue (or [3H]CHE and [14C]CO) or as fluorescence intensity (for DiD) depending on the organ of the mouse, 15 minutes (Table 6), 2 hours (Table 7), 4 hours (Table 8), 6 hours (Table 9), 16 hours (Table 10), 24 hours (Table 11), 72 hours (Table 12), 120 hours (Table 13) and 168 hours (Table 14), after injection into an FVB female mouse of the nano-emulsion of Example 1.1. (nano-emulsion according to the invention comprising the three tracers ([3H]CHE, [14C]CO and DiD).

[1] = 15 min after injection of nano-emulsion of Example 1.1, FVB female mouse
[2] = 2 h after injection of nano-emulsion of Example 1.1, FVB female mouse
[3] = 4 h after injection of nano-emulsion of Example 1.1, FVB female mouse
[4] = 16 h (Table 9 head) after injection of nano-emulsion of Example 1.1, FVB female mouse
[5] = 24 h (Table 10 head) after injection of nano-emulsion of Example 1.1, FVB female mouse
[6] = 48 h (Table 11 head) after injection of nano-emulsion of Example 1.1, FVB female mouse
[7] = 72 h after injection of nano-emulsion of Example 1.1, FVB female mouse
[8] = 120 h after injection of nano-emulsion of Example 1.1, FVB female mouse
[9] = 168 h after injection of nano-emulsion of Example 1.1, FVB female mouse

CCCCCCCCCCCCCCCCCCN1/C(=C/C=C/C=C/C2=[N+](CCCCCCCCCCCCCCCCCC)c3ccccc3C2(C)C)C(C)(C)c2ccccc21.[O-][Cl+3]([O-])([O-])[O-] [DiD, l,r-dioctadécyl-3,3,3′,3′-tetramethylindodicarbocyanine (DiD) perchlorate]
fluorescence intensity, Adrenal glands (MEAN) [1]: 457 photons per pixel, reduced to | fluorescence intensity, Brain (MEAN) [1]: 145 photons per pixel, reduced to | fluorescence intensity, Fat (MEAN) [1]: 147 photons per pixel, reduced to | fluorescence intensity, Heart (MEAN) [1]: 451 photons per pixel, reduced to | fluorescence intensity, Intestine (MEAN) [1]: 300 photons per pixel, reduced to | fluorescence intensity, Kidney (MEAN) [1]: 228 photons per pixel, reduced to | fluorescence intensity, Liver (MEAN) [1]: 979 photons per pixel, reduced to | fluorescence intensity, Lung (MEAN) [1]: 618 photons per pixel, reduced to | fluorescence intensity, Muscle (MEAN) [1]: 1 photons per pixel, reduced to | fluorescence intensity, Ovary (MEAN) [1]: 484 photons per pixel, reduced to | fluorescence intensity, Pancreas (MEAN) [1]: 216 photons per pixel, reduced to | fluorescence intensity, Salivary glands (MEAN) [1]: 59 photons per pixel, reduced to | fluorescence intensity, Spleen (MEAN) [1]: 727 photons per pixel, reduced to | fluorescence intensity, Uterus (MEAN) [1]: 178 photons per pixel, reduced to | fluorescence intensity, Adrenal glands (MEAN) [2]: 1050 photons per pixel, reduced to | fluorescence intensity, Brain (MEAN) [2]: 250 photons per pixel, reduced to | fluorescence intensity, Fat (MEAN) [2]: 247 photons per pixel, reduced to | fluorescence intensity, Heart (MEAN) [2]: 389 photons per pixel, reduced to | fluorescence intensity, Intestine (MEAN) [2]: 637 photons per pixel, reduced to | fluorescence intensity, Kidneys (MEAN) [2]: 473 photons per pixel, reduced to | fluorescence intensity, Liver (MEAN) [2]: 1421 photons per pixel, reduced to | fluorescence intensity, Lung (MEAN) [2]: 727 photons per pixel, reduced to | fluorescence intensity, Muscle (MEAN) [2]: 213 photons per pixel, reduced to | fluorescence intensity, Ovary (MEAN) [2]: 1807 photons per pixel, reduced to | fluorescence intensity, Pancreas (MEAN) [2]: 399 photons per pixel, reduced to | fluorescence intensity, Salivary glands (MEAN) [2]: 288 photons per pixel, reduced to | fluorescence intensity, Spleen (MEAN) [2]: 805 photons per pixel, reduced to | fluorescence intensity, Uterus (MEAN) [2]: 814 photons per pixel, reduced to | fluorescence intensity, Adrenal glands (MEAN) [3]: 1754 photons per pixel, reduced to | fluorescence intensity, Brain (MEAN) [3]: 279 photons per pixel, reduced to | fluorescence intensity, Fat (MEAN) [3]: 522 photons per pixel, reduced to | fluorescence intensity, Heart (MEAN) [3]: 550 photons per pixel, reduced to | fluorescence intensity, Intestine (MEAN) [3]: 974 photons per pixel, reduced to | fluorescence intensity, Kidney (MEAN) [3]: 614 photons per pixel, reduced to | fluorescence intensity, Liver (MEAN) [3]: 1845 photons per pixel, reduced to | fluorescence intensity, Lungs (MEAN) [3]: 925 photons per pixel, reduced to | fluorescence intensity, Muscle (MEAN) [3]: 236 photons per pixel, reduced to | fluorescence intensity, Ovary (MEAN) [3]: 2781 photons per pixel, reduced to | fluorescence intensity, Pancreas (MEAN) [3]: 527 photons per pixel, reduced to | fluorescence intensity, Salivary glands (MEAN) [3]: 516 photons per pixel, reduced to | fluorescence intensity, Spleen (MEAN) [3]: 955 photons per pixel, reduced to | fluorescence intensity, Uterus (MEAN) [3]: 712 photons per pixel, reduced to | fluorescence intensity, Adrenal glands (MEAN) [4]: 2355 photons per pixel, reduced to | fluorescence intensity, Brain (MEAN) [4]: 259 photons per pixel, reduced to | fluorescence intensity, Fat (MEAN) [4]: 532 photons per pixel, reduced to | fluorescence intensity, Heart (MEAN) [4]: 444 photons per pixel, reduced to | fluorescence intensity, Intestine (MEAN) [4]: 1139 photons per pixel, reduced to | fluorescence intensity, Kidney (MEAN) [4]: 627 photons per pixel, reduced to | fluorescence intensity, Liver (MEAN) [4]: 1661 photons per pixel, reduced to | fluorescence intensity, Lungs (MEAN) [4]: 592 photons per pixel, reduced to | fluorescence intensity, Muscle (MEAN) [4]: 289 photons per pixel, reduced to | fluorescence intensity, Ovary (MEAN) [4]: 2915 photons per pixel, reduced to | fluorescence intensity, Pancreas (MEAN) [4]: 564 photons per pixel, reduced to | fluorescence intensity, Salivary glands (MEAN) [4]: 641 photons per pixel, reduced to | fluorescence intensity, Spleen (MEAN) [4]: 978 photons per pixel, reduced to | fluorescence intensity, Uterus (MEAN) [4]: 1759 photons per pixel, reduced to | fluorescence intensity, Adrenal glands (MEAN) [5]: 2624 photons per pixel, reduced to | fluorescence intensity, Brain (MEAN) [5]: 239 photons per pixel, reduced to | fluorescence intensity, Fat (MEAN) [5]: 553 photons per pixel, reduced to | fluorescence intensity, Heart (MEAN) [5]: 288 photons per pixel, reduced to | fluorescence intensity, Intestine (MEAN) [5]: 777 photons per pixel, reduced to | fluorescence intensity, Kidney (MEAN) [5]: 599 photons per pixel, reduced to | fluorescence intensity, Liver (MEAN) [5]: 1675 photons per pixel, reduced to | fluorescence intensity, Lung (MEAN) [5]: 667 photons per pixel, reduced to | fluorescence intensity, Muscle (MEAN) [5]: 161 photons per pixel, reduced to | fluorescence intensity, Ovary (MEAN) [5]: 3173 photons per pixel, reduced to | fluorescence intensity, Pancreas (MEAN) [5]: 446 photons per pixel, reduced to | fluorescence intensity, Salivary glands (MEAN) [5]: 411 photons per pixel, reduced to | fluorescence intensity, Spleen (MEAN) [5]: 774 photons per pixel, reduced to | fluorescence intensity, Uterus (MEAN) [5]: 971 photons per pixel, reduced to | fluorescence intensity, Adrenal glands (MEAN) [6]: 1484 photons per pixel, reduced to | fluorescence intensity, Brain (MEAN) [6]: 51 photons per pixel, reduced to | fluorescence intensity, Fat (MEAN) [6]: 208 photons per pixel, reduced to | fluorescence intensity, Heart (MEAN) [6]: 122 photons per pixel, reduced to | fluorescence intensity, Intestine (MEAN) [6]: 481 photons per pixel, reduced to | fluorescence intensity, Kidney (MEAN) [6]: 555 photons per pixel, reduced to | fluorescence intensity, Liver (MEAN) [6]: 1868 photons per pixel, reduced to | fluorescence intensity, Lungs (MEAN) [6]: 212 photons per pixel, reduced to | fluorescence intensity, Muscle (MEAN) [6]: 32 photons per pixel, reduced to | fluorescence intensity, Ovary (MEAN) [6]: 4018 photons per pixel, reduced to | fluorescence intensity, Pancreas (MEAN) [6]: 202 photons per pixel, reduced to | fluorescence intensity, Salivary glands (MEAN) [6]: 268 photons per pixel, reduced to | fluorescence intensity, Spleen (MEAN) [6]: 342 photons per pixel, reduced to | fluorescence intensity, Uterus (MEAN) [6]: 951 photons per pixel, reduced to | fluorescence intensity, Adrenal glands (MEAN) [7]: 1135 photons per pixel, reduced to | fluorescence intensity, Brain (MEAN) [7]: 43 photons per pixel, reduced to | fluorescence intensity, Fat (MEAN) [7]: 159 photons per pixel, reduced to | fluorescence intensity, Heart (MEAN) [7]: 113 photons per pixel, reduced to | fluorescence intensity, Intestine (MEAN) [7]: 297 photons per pixel, reduced to | fluorescence intensity, Kidney (MEAN) [7]: 365 photons per pixel, reduced to | fluorescence intensity, Liver (MEAN) [7]: 1136 photons per pixel, reduced to | fluorescence intensity, Lungs (MEAN) [7]: 120 photons per pixel, reduced to | fluorescence intensity, Muscle (MEAN) [7]: 3 photons per pixel, reduced to | fluorescence intensity, Ovary (MEAN) [7]: 2397 photons per pixel, reduced to | fluorescence intensity, Pancreas (MEAN) [7]: 102 photons per pixel, reduced to | fluorescence intensity, Salivary glands (MEAN) [7]: 237 photons per pixel, reduced to | fluorescence intensity, Spleen (MEAN) [7]: 330 photons per pixel, reduced to | fluorescence intensity, Uterus (MEAN) [7]: 514 photons per pixel, reduced to | fluorescence intensity, Adrenal gland (MEAN) [8]: 1688 photons per pixel, reduced to | fluorescence intensity, Brain (MEAN) [8]: 90 photons per pixel, reduced to | fluorescence intensity, Fat (MEAN) [8]: 176 photons per pixel, reduced to | fluorescence intensity, Heart (MEAN) [8]: 80 photons per pixel, reduced to | fluorescence intensity, Intestine (MEAN) [8]: 279 photons per pixel, reduced to | fluorescence intensity, Kidney (MEAN) [8]: 383 photons per pixel, reduced to | fluorescence intensity, Liver (MEAN) [8]: 996 photons per pixel, reduced to | fluorescence intensity, Lungs (MEAN) [8]: 53 photons per pixel, reduced to | fluorescence intensity, Muscle (MEAN) [8]: 254 photons per pixel, reduced to | fluorescence intensity, Ovary (MEAN) [8]: 2319 photons per pixel, reduced to | fluorescence intensity, Pancreas (MEAN) [8]: 297 photons per pixel, reduced to | fluorescence intensity, Salivary glands (MEAN) [8]: 120 photons per pixel, reduced to | fluorescence intensity, Spleen (MEAN) [8]: 229 photons per pixel, reduced to | fluorescence intensity, Uterus (MEAN) [8]: 563 photons per pixel, reduced to | fluorescence intensity, Adrenal glands (MEAN) [9]: 660.62 photons per pixel, reduced to | fluorescence intensity, Brain (MEAN) [9]: 40.28 photons per pixel, reduced to | fluorescence intensity, Fat (MEAN) [9]: 164.55 photons per pixel, reduced to | fluorescence intensity, Heart (MEAN) [9]: 117.29 photons per pixel, reduced to | fluorescence intensity, Intestine (MEAN) [9]: 214.02 photons per pixel, reduced to | fluorescence intensity, Kidneys (MEAN) [9]: 391.45 photons per pixel, reduced to | fluorescence intensity, Liver (MEAN) [9]: 676.60 photons per pixel, reduced to | fluorescence intensity, Lungs (MEAN) [9]: 1.35 photons per pixel, reduced to | fluorescence intensity, Muscle (MEAN) [9]: 16.21 photons per pixel, reduced to | fluorescence intensity, Ovary (MEAN) [9]: 1614.45 photons per pixel, reduced to | fluorescence intensity, Pancreas (MEAN) [9]: 125.11 photons per pixel, reduced to | fluorescence intensity, Salivary glands (MEAN) [9]: 216.84 photons per pixel, reduced to | fluorescence intensity, Spleen (MEAN) [9]: 171.93 photons per pixel, reduced to | fluorescence intensity, Uterus (MEAN) [9]: 697.92 photons per pixel, reduced to
